Measured values published in US20080275058A1, “N-Substituted-1H-Quinoline-2,4-Diones, Preparation Method Thereof, And Pharmaceutical Composition Containing The Same” (KOREA RESEARCH INSTITUTE OF CHEMICAL TECHNOLOGY, priority 2005, published 2008).
Like-named read-outs stand apart in the source and are kept apart here.

What was measured:
hD4.2 receptor = target: T1, hD4.2 receptor (Homo sapiens, UniProt P21917, DEL265-296); experiment: Radioligand binding, dopamine D4 ([3H]YM-09151-2); details: Table 4; [3H]YM-09151-2 0.06 nM; read-out: Binding affinity, IC50 (nM) D4
T1 construct: purchased BioSignal Packard Inc., Montreal, Canada
T1 sequence (P21917 with tags, fused parts or gaps DEL265-296): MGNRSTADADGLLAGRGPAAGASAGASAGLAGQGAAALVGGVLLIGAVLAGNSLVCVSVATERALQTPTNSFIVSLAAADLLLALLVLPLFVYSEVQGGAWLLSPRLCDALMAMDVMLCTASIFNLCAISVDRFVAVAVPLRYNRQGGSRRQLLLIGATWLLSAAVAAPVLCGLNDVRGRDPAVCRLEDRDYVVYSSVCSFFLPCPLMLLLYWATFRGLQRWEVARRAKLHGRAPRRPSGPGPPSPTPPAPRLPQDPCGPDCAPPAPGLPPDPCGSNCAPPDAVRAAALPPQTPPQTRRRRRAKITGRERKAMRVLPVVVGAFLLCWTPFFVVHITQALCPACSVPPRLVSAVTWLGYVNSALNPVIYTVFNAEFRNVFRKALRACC
Protocol: (§1) 2-2: Binding assays of Dopamine Receptor Family
(§2) The radioligands used were [^3H] spiperone (for hD2L and hD3 receptors, 1 nM) and [^3H] YM-09151-2 (for hD4.2 receptor, 0.06 nM). Radioligand bindings were performed by the protocols provided by the supplier of receptor membranes (BioSignal Packard Inc., Montreal, Canada). Briefly, the buffer used in D2 or D3 receptor binding assay was 50 mM Tris-HCl (pH 7.4), 10 mM MgCl2, 1 mM EDTA, or 50 mM Tris-HCl (pH 7.4), 5 mM MgCl2, 5 mM EDTA, 5 mM KCl, 1.5 mM CaCl2, 120 mM NaCl, respectively. In [^3H] YM-09151-2 receptor binding assays, the buffer containing 50 mM Tris-HCl (pH 7.4), 5 mM MgCl2, 5 mM EDTA, 5 mM KCl and 1.5 mM CaCl2 was used. […] Competition binding studies were carried out with 7-8 concentrations of the test compound run in duplicate tubes, and isotherms from three assays were calculated by computerized nonlinear regression analysis (GraphPad Prism Program, San Diego, […]) to yield median inhibitory concentration (IC50) values.

5-HT7 = target: T2, 5-HT7 (Homo sapiens, UniProt P34969); experiment: Radioligand binding, 5-HT7 ([3H]LSD); details: Table 4; [3H]LSD 3 nM; read-out: Binding affinity, IC50 (nM) 5-HT7
T2 construct: purchased Euroscreen/BioSignal Packard Inc

[1] = target: T3, Human serotonin 5-HT6 receptor (Homo sapiens, UniProt P50406); experiment: [3H]LSD binding assay on cloned 5-HT6 receptor membranes
T3 construct: made in house; host or cells: insect Sf21 cells (baculovirus vector BacPAK8)

5-HT2a = target: T4, 5-HT2a (Homo sapiens, UniProt P28223); experiment: Radioligand binding, 5-HT2a ([3H]Ketanserin); details: Table 4; [3H]Ketanserin 1 nM; read-out: Binding affinity, IC50 (nM) 5-HT2a
T4 construct: purchased Euroscreen/BioSignal Packard Inc

hD2L = target: T5, hD2L (Homo sapiens, UniProt P14416); experiment: Radioligand binding, dopamine D2 ([3H]spiperone); details: Table 4; [3H]spiperone 1 nM; read-out: Binding affinity, IC50 (nM) D2
T5 construct: purchased BioSignal Packard Inc., Montreal, Canada
Protocol: as §1, §2

5-HT1a = target: T6, 5-HT1a (Homo sapiens, UniProt P08908); experiment: Radioligand binding, 5-HT1a ([3H]8-OH-DPAT); details: Table 4; [3H]8-OH-DPAT 0.5 nM; read-out: Binding affinity, IC50 (nM) 5-HT1a
T6 construct: purchased Euroscreen/BioSignal Packard Inc
T6 sequence (P08908 1-422): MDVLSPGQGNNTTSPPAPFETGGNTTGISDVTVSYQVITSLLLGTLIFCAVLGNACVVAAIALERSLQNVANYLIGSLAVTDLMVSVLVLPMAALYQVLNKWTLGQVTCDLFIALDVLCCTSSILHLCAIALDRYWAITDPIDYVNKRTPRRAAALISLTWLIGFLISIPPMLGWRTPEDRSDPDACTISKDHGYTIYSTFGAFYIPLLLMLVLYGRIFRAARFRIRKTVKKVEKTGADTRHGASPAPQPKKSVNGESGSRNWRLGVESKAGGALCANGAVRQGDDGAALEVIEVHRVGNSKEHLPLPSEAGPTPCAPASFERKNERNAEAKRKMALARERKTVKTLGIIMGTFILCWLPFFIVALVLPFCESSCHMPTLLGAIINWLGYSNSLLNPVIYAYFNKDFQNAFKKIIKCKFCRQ
Protocol: Radioligand bindings were performed according to the test method provided by the supplier of receptor membrane (Euroscreen/BioSignal Packard Inc.). The detailed assay conditions and the results were shown in the following Table 3 and Table 4, respectively.

D1 = D1 (Homo sapiens, UniProt P21728); experiment: Radioligand binding, dopamine D1; details: Table 4; read-out: Binding affinity, IC50 (nM) D1
5-HT2c = target: T7, 5-HT2c (Homo sapiens, UniProt P28335); experiment: Radioligand binding, 5-HT2c ([3H]Mesulergine); details: Table 4; [3H]Mesulergine 1 nM; read-out: Binding affinity, IC50 (nM) 5-HT2c
T7 construct: purchased Euroscreen/BioSignal Packard Inc
T7 sequence (P28335 33-458): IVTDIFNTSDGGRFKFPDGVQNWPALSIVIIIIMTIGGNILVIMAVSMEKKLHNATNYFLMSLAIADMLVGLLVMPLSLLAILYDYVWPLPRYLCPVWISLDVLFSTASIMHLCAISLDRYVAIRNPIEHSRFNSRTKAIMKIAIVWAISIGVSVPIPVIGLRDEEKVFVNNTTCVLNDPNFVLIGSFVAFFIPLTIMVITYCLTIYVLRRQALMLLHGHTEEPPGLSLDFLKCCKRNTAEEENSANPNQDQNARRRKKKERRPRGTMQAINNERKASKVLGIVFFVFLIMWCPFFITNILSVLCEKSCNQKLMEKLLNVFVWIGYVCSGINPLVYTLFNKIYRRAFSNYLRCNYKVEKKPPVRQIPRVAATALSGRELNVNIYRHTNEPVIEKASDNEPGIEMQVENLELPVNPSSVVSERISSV

hD3 = target: T8, hD3 (Homo sapiens, UniProt P35462); experiment: Radioligand binding, dopamine D3 ([3H]spiperone); details: Table 4; [3H]spiperone 1 nM; read-out: Binding affinity, IC50 (nM) D3
T8 construct: purchased BioSignal Packard Inc., Montreal, Canada
Protocol: as §1, §2

[2] = Table 2, 1.87 nM [3H]LSD, 37 C, 60 min, read-out: IC50 (nM), binding affinity to the 5-HT6 receptor
[3] = Table 4, read-out: Binding affinity, IC50 (nM) 5-HT6

T5 sequence (P14416 whole entry): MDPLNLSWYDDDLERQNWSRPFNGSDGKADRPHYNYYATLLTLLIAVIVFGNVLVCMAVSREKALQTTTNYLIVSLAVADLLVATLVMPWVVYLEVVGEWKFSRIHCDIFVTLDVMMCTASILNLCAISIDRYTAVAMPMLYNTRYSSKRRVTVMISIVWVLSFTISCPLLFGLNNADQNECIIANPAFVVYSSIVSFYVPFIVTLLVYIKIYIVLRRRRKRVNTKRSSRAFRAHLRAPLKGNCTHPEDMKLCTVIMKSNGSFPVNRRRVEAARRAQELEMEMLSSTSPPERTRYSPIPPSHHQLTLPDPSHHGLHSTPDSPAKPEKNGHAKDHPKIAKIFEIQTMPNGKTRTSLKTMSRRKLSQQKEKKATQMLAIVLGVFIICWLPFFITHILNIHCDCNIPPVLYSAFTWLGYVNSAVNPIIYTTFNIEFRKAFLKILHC
T4 sequence (P28223 whole entry): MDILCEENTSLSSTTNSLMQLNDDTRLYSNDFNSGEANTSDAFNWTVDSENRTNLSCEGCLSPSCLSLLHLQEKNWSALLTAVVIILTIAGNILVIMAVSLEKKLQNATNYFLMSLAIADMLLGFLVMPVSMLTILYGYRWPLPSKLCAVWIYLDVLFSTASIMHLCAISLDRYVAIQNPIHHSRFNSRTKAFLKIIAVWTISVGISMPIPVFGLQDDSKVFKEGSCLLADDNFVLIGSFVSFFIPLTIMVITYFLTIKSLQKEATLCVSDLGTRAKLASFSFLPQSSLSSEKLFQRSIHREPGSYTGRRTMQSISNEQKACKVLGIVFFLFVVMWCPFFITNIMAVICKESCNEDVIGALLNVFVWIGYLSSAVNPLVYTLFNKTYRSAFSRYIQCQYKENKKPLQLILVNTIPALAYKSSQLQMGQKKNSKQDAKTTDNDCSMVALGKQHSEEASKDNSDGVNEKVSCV
T2 sequence (P34969 whole entry): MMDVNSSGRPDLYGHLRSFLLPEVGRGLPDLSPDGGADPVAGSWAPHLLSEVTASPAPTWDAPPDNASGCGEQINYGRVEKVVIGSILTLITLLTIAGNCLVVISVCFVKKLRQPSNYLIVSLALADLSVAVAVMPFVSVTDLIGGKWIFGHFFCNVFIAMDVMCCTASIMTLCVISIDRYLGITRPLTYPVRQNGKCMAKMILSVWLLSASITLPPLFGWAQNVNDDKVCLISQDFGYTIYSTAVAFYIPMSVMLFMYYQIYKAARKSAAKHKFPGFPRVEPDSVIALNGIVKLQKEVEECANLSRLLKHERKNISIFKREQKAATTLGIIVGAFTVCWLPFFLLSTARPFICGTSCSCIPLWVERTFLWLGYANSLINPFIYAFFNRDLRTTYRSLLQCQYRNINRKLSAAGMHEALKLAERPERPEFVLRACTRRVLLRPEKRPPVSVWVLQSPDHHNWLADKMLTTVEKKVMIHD
D1, sequence (P21728 whole entry): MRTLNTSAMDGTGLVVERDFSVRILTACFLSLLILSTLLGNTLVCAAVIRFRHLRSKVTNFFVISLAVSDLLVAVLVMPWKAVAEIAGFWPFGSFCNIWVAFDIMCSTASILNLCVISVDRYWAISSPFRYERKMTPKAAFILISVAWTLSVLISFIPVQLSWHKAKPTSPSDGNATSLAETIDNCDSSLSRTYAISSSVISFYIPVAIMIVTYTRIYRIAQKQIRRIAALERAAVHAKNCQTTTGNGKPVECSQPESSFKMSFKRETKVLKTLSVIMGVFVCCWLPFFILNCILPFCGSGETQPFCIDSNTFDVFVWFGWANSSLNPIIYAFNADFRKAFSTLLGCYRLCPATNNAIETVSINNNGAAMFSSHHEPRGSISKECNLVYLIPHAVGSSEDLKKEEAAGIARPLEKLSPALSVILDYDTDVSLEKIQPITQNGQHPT
T8 sequence (P35462 whole entry): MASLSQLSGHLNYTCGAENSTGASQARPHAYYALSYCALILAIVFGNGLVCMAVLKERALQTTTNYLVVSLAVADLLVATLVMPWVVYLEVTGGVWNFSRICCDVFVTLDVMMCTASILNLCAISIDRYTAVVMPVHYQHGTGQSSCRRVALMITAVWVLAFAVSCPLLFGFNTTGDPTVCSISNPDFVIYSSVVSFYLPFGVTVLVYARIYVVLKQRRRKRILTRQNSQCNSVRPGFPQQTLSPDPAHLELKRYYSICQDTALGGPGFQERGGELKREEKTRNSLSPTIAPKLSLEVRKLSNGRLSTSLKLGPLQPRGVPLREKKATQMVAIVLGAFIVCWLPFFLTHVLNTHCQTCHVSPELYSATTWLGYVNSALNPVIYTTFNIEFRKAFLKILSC
T3 sequence (P50406 whole entry): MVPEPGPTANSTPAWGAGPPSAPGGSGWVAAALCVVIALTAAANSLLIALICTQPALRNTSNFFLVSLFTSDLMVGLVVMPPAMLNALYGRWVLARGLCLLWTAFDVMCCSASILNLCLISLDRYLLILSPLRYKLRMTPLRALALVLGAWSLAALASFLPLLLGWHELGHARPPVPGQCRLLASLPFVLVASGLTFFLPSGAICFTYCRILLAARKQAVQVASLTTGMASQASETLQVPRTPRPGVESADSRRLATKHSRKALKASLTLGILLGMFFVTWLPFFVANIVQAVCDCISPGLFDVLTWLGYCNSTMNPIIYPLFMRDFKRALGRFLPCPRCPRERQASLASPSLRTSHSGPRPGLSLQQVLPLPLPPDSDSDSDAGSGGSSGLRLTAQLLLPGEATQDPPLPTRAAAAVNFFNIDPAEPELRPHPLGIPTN

Row | SMILES | melting point | IC50 (hD4.2 receptor) | IC50 (5-HT7) | IC50 [1, 2] | IC50 [1, 3] | IC50 (5-HT2a) | IC50 (hD2L) | IC50 (5-HT1a) | IC50 (D1) | IC50 (5-HT2c) | IC50 (hD3) | binding affinity at 5-HT6 receptor labeled by [3H]LSD, in words ([1]; comment on Table 2)
1 | COc1ccc(C2(C)C(=O)c3c(N4CCNCC4)cc(Cl)cc3N(Cc3cccnc3)C2=O)cc1 (stereo not drawn) [Example 37, 7-Chloro-3-(4-methoxy-phenyl)-3-methyl-5-piperazin-1-yl-1-pyridin-3-ylmethyl-1H-quinoline-2,4-dione] | 160 to 162 °C | 9380 nM | 5990 nM | 21.4 nM | 19.8 nM | 6020 nM | 8050 nM | 9060 nM | 7680 nM | 8050 nM | > 10000 nM | 
2 | COc1ccc(C2(C)C(=O)c3c(N4CCNCC4)cc(Cl)cc3N(Cc3ccc(-c4ccccc4)cc3)C2=O)cc1 (stereo not drawn) [Example 41, 1-Biphenyl-4-ylmethyl-7-chloro-3-(4-methoxy-phenyl)-3-methyl-5-piperazin-1-yl-1H-quinoline-2,4-dione] | 142 to 144 °C | 9110 nM | 7010 nM | 351 nM | 15.5 nM | 8470 nM | 7680 nM | 7810 nM | 6000 nM | 8090 nM | 9000 nM | 
3 | CC1(c2ccc(O)cc2)C(=O)c2c(N3CCNCC3)cc(Cl)cc2N(Cc2ccc(-c3ccccc3)cc2)C1=O (stereo not drawn) [Example 42, 1-Biphenyl-4-ylmethyl-7-chloro-3-(4-hydroxy-phenyl)-3-methyl-5-piperazin-1-yl-1H-quinoline-2,4-dione] | 240 to 241 °C | 9410 nM | 6730 nM | 164 nM | 16.1 nM | 8190 nM | 6850 nM | 6640 nM | 6120 nM | 7600 nM | 9210 nM | 
4 | COc1ccc(C2(C)C(=O)c3c(N4CCNCC4)cc(Cl)cc3N(Cc3nc4ccccc4[nH]3)C2=O)cc1 (stereo not drawn) [Example 43, 1-(1H-Benzoimidazol-2-ylmethyl)-7-chloro-3-(4-methoxy-phenyl)-3-methyl-5-piperazin-1-yl-1H-quinoline-2,4-dione] | 178 to 179 °C | 9470 nM | 9520 nM | 137 nM | 19.3 nM | 5800 nM | 9010 nM | 8020 nM | 6350 nM | 7890 nM | 9440 nM | 
5 | COc1ccc(C2(C)C(=O)c3c(N4CCNCC4)cc(Cl)cc3N(Cc3ccc4ccccc4n3)C2=O)cc1 (stereo not drawn) [Example 44, 7-Chloro-3-(4-methoxy-phenyl)-3-methyl-5-piperazin-1-yl-1-quinolin-2-ylmethyl-1H-quinoline-2,4-dione] | 200 to 201 °C | 9270 nM | 7650 nM | 6.9 nM | 19 nM | 6100 nM | > 1000 nM | 7530 nM | 7650 nM | 7690 nM | 9840 nM | 
6 | CC1(c2ccc(O)cc2)C(=O)c2c(N3CCNCC3)cc(Cl)cc2N(Cc2ccc3ccccc3n2)C1=O (stereo not drawn) [Example 45, 7-Chloro-3-(4-hydroxy-phenyl)-3-methyl-5-piperazin-1-yl-1-quinolin-2-ylmethyl-1H-quinoline-2,4-dione] | 278 to 279 °C | 8510 nM | 9450 nM | 11.4 nM | 16.4 nM | > 10000 nM | 7680 nM | > 10000 nM | 8410 nM | > 1000 nM | 9160 nM | 
7 | CCN1C(=O)C(C)(c2ccc(OC)cc2)C(=O)c2c(N3CCNCC3)cc(Cl)cc21 (stereo not drawn) [Example 46, 7-Chloro-1-ethyl-3-(4-methoxy-phenyl)-3-methyl-5-piperazin-1-yl-1H-quinoline-2,4-dione] | 127 to 129 °C | 9570 nM | 7950 nM | 49.1 nM | 15.8 nM | 6360 nM | 8570 nM | 6700 nM | 7890 nM | 9110 nM | 9410 nM | 
8 | COc1ccc(C2(C)C(=O)c3c(N4CCNCC4)cc(Cl)cc3N(CC3CCCCC3)C2=O)cc1 (stereo not drawn) [Example 48, 7-Chloro-1-cyclohexylmethyl-3-(4-methoxy-phenyl)-3-methyl-5-piperazin-1-yl-1H-quinoline-2,4-dione] | 127 to 128 °C | 9010 nM | 8520 nM | 251 nM | 16 nM | 5910 nM | 7510 nM | 7540 nM | 7650 nM | 8660 nM | 8990 nM | 
9 | CC1(c2ccc(O)cc2)C(=O)c2c(N3CCNCC3)cc(Cl)cc2N(CC2CCCCC2)C1=O (stereo not drawn) [Example 49, 7-Chloro-1-cyclohexylmethyl-3-(4-hydroxy-phenyl)-3-methyl-5-piperazin-1-yl-1H-quinoline-2,4-dione] | 175 to 176 °C | 8780 nM | 9510 nM | 11.7 nM | 17.5 nM | 5810 nM | > 10000 nM | 6300 nM | 8140 nM | 7530 nM | 8680 nM | 
10 | COc1cccc(C2(C)C(=O)c3c(N4CCNCC4)cc(Cl)cc3N(Cc3ccccc3)C2=O)c1 (stereo not drawn) [Example 50, 1-Benzyl-7-chloro-3-(3-methoxy-phenyl)-3-methyl-5-piperazin-1-yl-1H-quinoline-2,4-dione] | 110 to 112 °C | 9040 nM | 7640 nM | 1.8 nM | 18.4 nM | 9150 nM | 7190 nM | > 1000 nM | 7740 nM | 7470 nM | 9760 nM | significant affinities
